In brackets after ≈: the same amount, converted by molar mass. Where two headings read alike, the source gives them in different places.

The nature of data set [1]: Intrinsic clearance in mouse liver microsomes. It counts as in vitro ADME. The method, then:
page 13: 4. Parasite assays T. cruzi4, Leishmania donovani axenic amastigote, cidal axenic amastigote and intra- macrophage drug sensitivity assays were conducted as previously described5,6. a. […] Instead of a single readout at 72 h, multiple identical plates were used and read at different time points (24, 48, 72 h). Rate of kill curves showing the luminescence signal at each time point for each concentration were plotted. 5. […] The rate of intrinsic clearance (CLint) of each test compound was then calculated using the following calculation: CLint(mL/min/g liver) = k x V x Microsomal protein yield Where V (mL/mg protein) is the incubation volume/mg protein added and microsomal protein yield is taken as 52.5 mg protein/g liver. Verapamil (0.5 μM) was used as a positive control to confirm acceptable assay performance. 6. Pharmacokinetic studies. a. Mouse and dog PK Mouse pharmacokinetic studies were conducted in male CD-1 mice and male beagle dogs. 3 animals per group were used for each study performed. A dose of 3 mg/kg was administered intravenously, in a bolus form to mice and infused over a 30 min period to dogs. For all the intravenous studies compound were dissolved in 5% DMSO/20% kleptose in saline. A dose of 10 mg/kg was orally administered by gavage to the two species in a suspension of 1% methylcellulose to investigate oral pharmacokinetics. S13
Background: Liver microsomes are a subcellular fraction often used to study metabolism.

The subject of another data set is THP-1 cells. In words: Mammalian cell growth inhibition (THP-1). Type of data set: cell-based. The settings on record: Homo sapiens. An excerpt: We hypothesized that, in view of their structural similarity, 1 and 2 probably shared the same mechanism of action.
Data set [2] deals with L. donovani intramacrophage amastigotes. In words: L. donovani intramacrophage assay (amastigotes in differentiated THP-1 cells). It counts as cell-based, Leishmania donovani. The settings on record: Leishmania donovani; L. donovani amastigotes in differentiated THP-1 cells; read-out: Intramacrophage EC50. The method, then: T. cruzi4, Leishmania donovani axenic amastigote, cidal axenic amastigote and intra-
macrophage drug sensitivity assays were conducted as previously described5,6. […]
5. Intrinsic clearance (CLint) […]
6. Pharmacokinetic studies. […]

Data set [3] in a line: CAD (charged aerosol detector) solubility.
Data set [4] concerns L. donovani promastigotes. In words: microbe, parasite or virus in culture. Type of data set: cell-based, Leishmania donovani. The settings on record: read-out: EC50. How it is done: 9. Mode of action studies a. Cell lines and culture conditions […]
c. Generation of drug-resistant parasites […]
donovani in the continuous presence of this compound. Starting at a sub-lethal […]
After a total of 120 days in
Genomic DNA was harvested from three independently generated L. donovani resistant clones and an age match control, as previously described27. PCR was performed using Platinum PCR Supermix (Invitrogen), as per manufacturer’s […]
generated using primers SubunitB4FW and SubunitB4RV, then sequenced using primer SubunitB4FW (Table S6). To sequence the β5 subunit (LdBPK_361730.1), an […]
sequenced using primer SubunitB5FW. PCR amplification and DNA sequencing were performed in triplicate for each independently generated cell line. The Leishmania donovani BPK282A1 sequences of the two subunits were identified in TriTrypDB and […]
e. Generation of overexpression constructs and LdBOB transgenic cell lines The genes encoding the mutated versions of the β4 (LdBPK_360340.1) and the β5 […]
parasites, were synthesised (GeneArt, Thermo Fischer Scientific). The synthetic genes, flanked by BamHI sites were cloned into the equivalent site of pIR1-SAT. The accuracy of all assembled constructs was verified by sequencing.
Mid-log-phase L. donovani promastigotes (LdBOB) were transfected with overexpression constructs using the Human T-Cell Nucleofector kit and the Amaxa Nucleofector electroporator (program V-033). Following transfection, cells were […]
to appropriate drug selection (100 µg/mL nourseothricin). Cloned cell lines were […]
selection for one passage prior to experiments. […]

The subject of a further data set is mouse lymphoma cells. In words: Mouse lymphoma assay. The settings on record: for MF (Mutation Frequency) / RTG (Relative Total Growth): positive control. The method, then: oxidative metabolism system (S9-mix). […]
The maximum […]
concentrations analysed were 410.45 µg/mL (1 mM, the maximum concentration in accordance with current guidelines and 100 µg/mL (limited by toxicity), for the 3 and […]
The mouse lymphoma screen was carried out using test methodology based on established procedures for in vitro gene mutation testing17,18,19,20. […]

The next data set deals with TA100. Conditions: positive control. How it is done: (§1) oxidative metabolism system (S9-mix). The maximum concentration tested and […]
(§2) Compound 7a was tested in a bacterial mutation screening assay (Ames test) with Salmonella typhimurium TA1535, TA1537, TA98, TA100 and Escherichia coli WP2uvrA(pKM101) in the presence and absence of an exogenous mammalian […]
(§3) The bacterial mutation screening assay was a plate incorporation test carried out as previously described15 and according to current methodology. […]

In another data set the test system is TA1535. The settings on record: positive control. How it is done: as §1, §2, §3
A further data set concerns TA1537. In words: Ames test, strain TA1537. How it is done:
as §1, §2, §3

Another data set relates to WP2 uvrA (pKM101). In words: Ames test, strain WP2 uvrA (pKM101). The settings on record: with S9-mix, dose level 10 per plate, positive control. How it is done:
as §1, §2, §3

The subject of the next data set is TA98. In words: Ames test, strain TA98. The settings on record: without S9-mix, dose level 1 per plate, positive control. How it is done:
as §1, §2, §3
(The Ames test detects mutagens through reverse mutation in bacteria.)

The mark [5] stands for this setting: without S9-mix, dose level 2 per plate.
The mark [6] stands for this setting: without S9-mix, dose level 50 per plate.
Where [7] appears, read: with S9-mix, dose level 5 per plate, positive control.
[8] abbreviates: with S9-mix, dose level 5 per plate.

By EC50 is commonly meant the concentration giving half of the maximal effect. For orientation: solubility means the concentration that dissolves in the medium under given conditions. In turn, `CCOc1cnc2nc(-c3cccc(NC(=O)N4CCCC4)c3)cn2c1` [Compound 4] showed a CLint in data set [1] of 0.59 mL/min/g. The “CLint (intrinsic clearance when incubated with mouse liver microsomes)” value in data set [1] is 0.59 mL/min per gram. The EC50 with THP-1 cells was over 50 µM; in data set [2] it was 3.3 µM. Further, the solubility in data set [3] is 7 µg/mL (≈ 19.9 µM).
Regarding `Cc1nc(C)c(C(=O)Nc2ccc(F)c(-c3nc4ncc(-c5ccccn5)cn4n3)c2)o1` [GNF6702, reference compound], the EC50 in data set [4] (RES I (compound 7-resistant clone)) was found to be 0.527 ± 0.012 µM; in data set [4] (RES III (compound 7-resistant clone)), 0.768 ± 0.038 µM; in data set [4] (WT promastigotes) it was 0.0018 ± 2e-06 µM.
With `Cc1c2ccccc2c(C)c2c1ccc1ccccc12` [DMBA, 7,12-dimethylbenz[a]anthracene, reference compound], in the data set on mouse lymphoma cells (3 hour +S9 treatment), the “Positive / Negative” value is given as “Positive”, the “MF (Mutation Frequency)” value was 1783.48 ×10-6 and the “RTG (Relative Total Growth)” value was determined as 28%.
Turning to `O=C(Nc1cccc(-c2cn3cc(N4CCOCC4)cnc3n2)c1)N1CCCC1` [Compound 5], in data set [1], the CLint stood at 0.76 mL/min/g and the “CLint (intrinsic clearance when incubated with mouse liver microsomes)” value is on record as 0.76 mL/min per gram. The compound also showed an EC50 in the data set on THP-1 cells of over 50 µM. Moreover, the EC50 in data set [2] was determined as 8.2 µM. This compound registered a solubility in [3] of 43 µg/mL (≈ 110 µM).
For `[N-]=[N+]=[N-].[Na+]` [NaN3, Sodium Azide, reference compound], in the data set on TA100 (setting [5]), the “Mean revertants per plate” value stood at 1050.0 and the “Ratio treated / solvent” value is reported as 10.1. Further, in the data set on TA1535 (setting [5]), the “Mean revertants per plate” value is listed as 1128.5 and the “Ratio treated / solvent” value is reported as 44.5.
As to `Nc1c2ccccc2nc2ccccc12` [Compound 9-AAC, 9-Amino Acridine, reference compound], in the data set with TA1537 (setting [6]), the “Mean revertants per plate” value was 249.5 and the “Ratio treated / solvent” value was 17.4.
On to `CCOc1cnc2nc(-c3cccc(NC(=O)c4ccco4)c3)cn2c1` [Compound 3], for which, in [1], the CLint is 1.8 mL/min/g and the “CLint (intrinsic clearance when incubated with mouse liver microsomes)” value was determined as 1.8 mL/min per gram. Besides, the EC50 with THP-1 cells is over 50 µM. For the same compound, the EC50 in data set [2] was 4.2 µM. The compound further showed a solubility in data set [3] of 7 µg/mL (≈ 20.1 µM).
In the case of `Nc1ccc2cc3ccccc3cc2c1` [Compound 2-AAN, 2-Aminoanthracene, reference compound], the “Mean revertants per plate” value in the data set with WP2 uvrA (pKM101) is given as 1650.5; in the data set on TA1537 (setting [7]), 153.0; in the data set with TA100 (setting [8]), 4441.0; in the data set on TA1535 (setting [8]), 490.5. For the same compound, the “Ratio treated / solvent” value is given as 11.1 in the data set on WP2 uvrA (pKM101), 6.7 in the data set on TA1537 (setting [7]), 33.6 in the data set on TA100 (setting [8]) and 31.6 with TA1535 (setting [8]).
As to `O=[N+]([O-])c1ccc2c(c1)Cc1ccccc1-2` [Compound 2NF, 2-Nitrofluorene, reference compound], in the data set with TA98, the “Mean revertants per plate” value is recorded as 417.5 and the “Ratio treated / solvent” value was found to be 20.5.
`COS(C)(=O)=O` [MMS, methylmethansulfonate, reference compound]: in the data set on mouse lymphoma cells (24 hour -S9 treatment), the “Positive / Negative” value is reported as “Positive”, the “MF (Mutation Frequency)” value is recorded as 938.58 ×10-6 and the “RTG (Relative Total Growth)” value is 73%.

The record behind these values is publication PMC6511062, “Preclinical candidate for the treatment of visceral leishmaniasis that acts through proteasome inhibition” (Proceedings of the National Academy of Sciences of the …, 2019).
